PubChem BioAssay (NCI)
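Results reflect a 48-hour exposure of cells in 96-well plates to compound at five concentrations. At the TGI there is no net growth.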 Where a SMILES comes first, the peptide text is derived from it. The star is where a group is joined. Cbz = O=C(OCc1ccccc1)*; NHNH2 = NN*

Key:
Test in all cases: growth of human tumour cells (NCI), 48 h
ACHN renal = tested on: ACHN renal
CAKI-1 renal = tested on: CAKI-1 renal
COLO 205 colon = tested on: COLO 205 colon
EKVX NSCLC = tested on: EKVX NSCLC
HCT-116 colon = tested on: HCT-116 colon
K-562 leukemia = tested on: K-562 leukemia
OVCAR-4 ovarian = tested on: OVCAR-4 ovarian
SK-OV-3 ovarian = tested on: SK-OV-3 ovarian
DU-145 prostate = tested on: DU-145 prostate
HS 578T breast = tested on: HS 578T breast

Compound	TGI (ACHN renal) [µM]	TGI (CAKI-1 renal) [µM]	TGI (COLO 205 colon) [µM]	TGI (EKVX NSCLC) [µM]	TGI (HCT-116 colon) [µM]	TGI (K-562 leukemia) [µM]	TGI (OVCAR-4 ovarian) [µM]	TGI (SK-OV-3 ovarian) [µM]	TGI (DU-145 prostate) [µM]	TGI (HS 578T breast) [µM]
CCCN(CCC)c1c([N+](=O)[O-])cc(C(=O)N(CCO)CCO)cc1[N+](=O)[O-]	> 100	> 100	> 100	> 100	> 100	> 100	> 100	> 100		
NC(=Nc1cccc(Cl)c1)c1ccccc1N	> 100	> 100	> 100	> 100	> 100	> 100	> 100	> 100	> 100	> 100
CCOC(=O)CCC(NC(=O)OCc1ccccc1)C(=O)NC(CCC(=O)OCC)C(=O)NN (configuration not stated) (Cbz-Glu(OEt)-Glu(OEt)-NHNH2; configuration not given here)	> 100		> 100	> 100	> 100	> 100				> 100
CNC(=O)OC(COC)CN1CCN(c2ccccc2C)CC1 (configuration not stated)	> 10	> 10	> 10	> 10	> 10	> 10	> 10	> 10	> 10	> 10
COc1ccc(C(=O)N/N=C/c2c(C)n(C)n(-c3ccccc3)c2=O)cc1	> 100		> 100	> 100	> 100	> 100	> 100	> 100		
CCCN1C(=O)/C(=C\c2ccc(OC)c(OC)c2)SC1=Nc1ccccc1	> 100	> 100	> 100	> 100	> 100	> 100	> 100	> 100		> 100
O=C1CCCCC/C1=C\c1ccccc1	> 100	> 100	> 100	> 100	> 100	> 100	> 100	> 100	> 100	> 100
COc1cc2ccc1OCc1cccc(n1)COc1ccc(cc1OC)C=NCCNCCNCCN=C2	> 100	> 100	> 100	> 100	> 100	> 100	> 100	> 100	> 100	> 100
COC(=O)[C@@H]1CC(C(CN)c2cn(C(=O)OC(C)(C)C)c3ccccc23)C(=O)N1C(=O)OC(C)(C)C (some centres not stated)	> 100	76.3	32.8	53.8	> 100	48.4	66.6		> 100	> 100
N#CCN(CC#N)C1CC=CCC1N(CC#N)CC#N (configuration not stated)	> 100	> 100	> 100	> 100	> 100	> 100	> 100	> 100	> 100	> 100
S=C(N1CCN(c2cccc(Cl)c2)CC1)N1CCN(c2cccc(Cl)c2)CC1	> 100	83.7	68	> 100	> 100	> 100	> 100	> 100	> 100	66.6
Nc1ccc(-c2nc3ccccc3s2)cc1C#Cc1ccccc1	38.5	37.2	31	39.8	27.4	84.4	44	60.7	72.5	50.2
CC[P+]1(c2ccccc2)[C@@H](C)CC[C@@H]1C	> 100	> 100	> 100	> 100	> 100	> 100	> 100	> 100	> 100	> 100
N#C/C(N)=C(\C#N)N=CNc1ccc(N)cc1	> 100	> 100	> 100	> 100	> 100	> 100	> 100	> 100	> 100	> 100
CC1(C)CC(=O)c2c(nc3c(ccc4ccccc43)c2-c2ccc(NC(=O)CCCCC(=O)Nc3ccc(-c4c5c(nc6c4ccc4ccccc46)CC(C)(C)CC5=O)cc3)cc2)C1	69.1	> 100	65.1	67.5	74.6	> 100		> 100	> 100	> 100
CCOC(=O)C(C)c1nc2ccc(C(F)(F)F)cc2[nH]c1=O (configuration not stated)	> 100		> 100	> 100	> 100	> 100	> 100	> 100	> 100	> 100
CCOC(=O)c1cc(C2CCN(c3ccccc3)C2=O)c(C(=O)/C=C(/C)N)[nH]1 (configuration not stated)	> 100	81.6	> 100	> 100	27.9	> 100	> 100	50.7	> 100	46.3
CCn1c(=O)c2nc(SC)sc2n(-c2ccccc2)c1=O	> 100		> 100		> 100	> 100	> 100	> 100	> 100	
C=CCOc1ccccc1C1(O)c2ccccc2C2=NCCCN21 (configuration not stated)	83.9	> 100	78.9	> 100	> 100	> 100	> 100	> 100	> 100	> 100
O=C(O)c1ccc(Nc2nc3cc(C(F)(F)F)ccc3n3cccc23)cc1	> 100	> 100	37	> 100	68.2	67.7		> 100	> 100	> 100
CN(C(=O)Cc1cc(Cl)c(Cl)cc1NC(=O)CN)[C@H]1CCCC[C@@H]1N1CCCC1	> 100	> 100		> 100	> 100	57.5	> 100	> 100	> 100	64
CC1C2=C(CCCC2=O)N(c2ccc(Cl)cc2)C2=C1C(=O)CCC2	> 100	> 100		> 100		> 100	> 100	> 100		> 100
Cc1ccc2[nH]c3[nH]c(=S)[nH]c(=O)c3c2c1	> 100	> 100	> 100	> 100	> 100	> 100		> 100	> 100	> 100

Compound	TGI (ACHN renal) [µM]	TGI (CAKI-1 renal) [µM]	TGI (COLO 205 colon) [µM]	TGI (EKVX NSCLC) [µM]	TGI (HCT-116 colon) [µM]	TGI (K-562 leukemia) [µM]	TGI (OVCAR-4 ovarian) [µM]	TGI (SK-OV-3 ovarian) [µM]	TGI (DU-145 prostate) [µM]	TGI (HS 578T breast) [µM]
O=C(OC/C=C1C=C(OC(=O)c2ccccc2)/C(=N/N(C(=O)c2ccccc2)c2ccccc2)O\1)c1ccccc1	22.5	13.7			18.3	11.8	22.1	23.6		
CCOC(=O)c1c(N2CCCC2)ncn(C)c1=S	> 100	> 100	> 100	> 100	> 100	> 100	> 100		> 100	> 100
COC(=O)/C=C(\S/C=C(/c1ccccc1)N1CCn2c(C(=O)c3ccccc3)c(C(=O)OC)c(C(=O)OC)c21)C(=O)OC	> 10	> 10	3.46	> 10	5	> 10	6.57	> 10		> 10
COc1ccc(C2C3CCCC(C3=O)C(c3ccc(OC)cc3)N2N=O)cc1 (configuration not stated)		> 100	42.3	99.6	> 74.9	> 66	45	> 87.6		
Cc1ccc2oc3c(c(Br)c(Br)n3C)c(=O)c2c1	32.1	63.8	> 100	44.2	33.9	> 100	> 100		> 100	65
CCn1c2ccccc2c2ccc(C3C(C(=O)OC)=C(C)NC(C)=C3C(=O)OC)cc21	> 100	> 100	> 100	> 100	> 100	> 100	> 100	> 100	> 100	
COc1cccc2cc(C(C)=O)c(=O)oc12	> 100	> 100	> 100	> 100	> 100	> 100	> 100		> 100	> 100
CC(CN(C)C)C(=O)c1ccccc1 (configuration not stated)	> 56.5	15.6	> 67.5	> 79	> 53	> 100	> 55.5			
CN1C(=O)CC2CCC(=O)N2c2cccnc21 (configuration not stated)	> 100	> 100	> 100	> 100	> 100	> 100	> 100		> 100	> 100
CC(=O)C(=[N+]=[N-])C(=O)N(C)CCC#N	> 10			> 10	> 10	> 10		> 10	> 10	
COc1ccc(-n2c(=O)n(-c3ccccc3)c(=O)n2-c2ccc(OC)cc2)cc1	> 100	7.59	> 100	> 100	> 100	> 100	> 100	> 100	> 100	
NC1Cc2ccccc2OC1=O (configuration not stated)	> 100	> 100	> 100	> 100		> 100		> 100	> 100	> 100
O=C1CSC2=NC3=C(CSC/C3=C\c3ccccc3)C(c3ccccc3)N12 (configuration not stated)	> 100		> 100	> 100	> 100	> 100	> 100	> 100	> 100	> 100
CCC(O)c1ccc(N=Cc2ccccc2O)cc1 (configuration not stated)	> 100	> 100	> 100	> 100	> 100	> 100	> 100	> 100	> 100	
OC12c3ccccc3C3CCC4(OCCO4)C3C1c1ccccc12 (configuration not stated)	> 100	> 100	> 100	> 100	> 100	> 100	> 100	> 100		
CC(C)(C)OC(=O)CN1CCN(CC(=O)N2CCN(C(=O)OCc3ccccc3)CC2)CCN(CC(=O)OC(C)(C)C)CCN(CC(=O)N2CCN(C(=O)OCc3ccccc3)CC2)CC1	22.3	23.4	2.64	34.3	> 38		16.2	16.5	20.1	5.67
COc1ccccc1NCc1cccc2c(=O)c3ccc(Cl)cc3oc12	> 100	> 100	> 100	> 100	> 100	> 100	> 100	> 100		
O=C(Nc1nnc(-c2c(Cl)c(Cl)c(Cl)c(Cl)c2-c2nc3cc(C(=O)c4ccccc4)ccc3[nH]2)o1)c1ccc(Cl)cc1	> 100	> 100	35.1	> 100	> 100	> 100	> 100	> 100	> 100	
C(=Nc1ccc(-c2nc3ccccc3[nH]2)cc1)c1ccco1	> 100	> 100	> 100	> 100	> 100	> 100	> 100		> 100	> 100
COc1ccc2nc3n(c2c1)C(=O)c1ccccc1-3	> 100	> 100	> 100	> 100	> 100	> 100	> 100	> 100	> 100	
COc1nc2c(c(=O)n1C)N=C(c1ccc(Cl)cc1)CC(c1ccccc1)N2 (configuration not stated)	54	74.5	> 100	69.2	63.5	54.2	48.5	> 100	> 100	
COC1CCC(=O)N1CN(C(C)=O)c1ccc(C)cc1 (configuration not stated)	> 100	> 100	> 100		> 100	> 100	> 100	> 100	> 100	> 100
Cc1ccc(S(=O)(=O)N/N=C2/CC3CCC4CC2CC34)cc1 (configuration not stated)	> 100	> 100	> 100	> 100	> 100	> 100		> 100	> 100	> 100
